From US20240293558A1, “KRAS INHIBITOR CONJUGATES” (Erasca, Inc., priority 2021, published 2024)
Read-outs that look alike come from different tables or passages of the source.

Legend:
KRAS (WT) = biological target: T1, KRAS (WT) (Homo sapiens, UniProt P01116); test: In-vitro RAS-RAF binding assay (RRB), HTRF/FRET; format: biochemical; details: read-out: Inhibition of RAS-RAF Binding (in-vitro) KRAS (WT) IC50
T1 construct: Biotinylated KRAS protein amino acids 1-169 (produced at Erasca); made in house
T1 sequence (P01116 1-169 isoform P01116-2): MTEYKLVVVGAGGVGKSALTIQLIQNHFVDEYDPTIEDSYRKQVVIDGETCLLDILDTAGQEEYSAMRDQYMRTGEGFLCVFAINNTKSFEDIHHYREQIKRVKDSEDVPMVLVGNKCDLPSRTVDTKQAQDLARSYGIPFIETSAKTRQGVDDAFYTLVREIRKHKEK
Experimental: (§1) Biotinylated KRAS protein amino acids 1-169 (produced at […]) is labeled with streptavidin-terbium (lanthanide cryptate donor fluorophore) in assay buffer (50 mM HEPES, pH 7.5, 100 mM NaCl, 1 mM MgCl2, 1 mM DTT) at a final concentration of 30 nM. In a separate reaction mixture, 30 nM cRAF (RBD) (Abcam, Cambridge MA) is labeled with anti-GST d2 (acceptor fluorophore). Labeling reactions are incubated for 1 hour at room temperature. […] Following the compound incubation, SOS1 catalytic domain (produced at […]) and GTPgS are added to the reaction to initiate nucleotide exchange (60 minutes exchange reaction). Once in the GTP state KRAS will bind to cRAF. No binding will occur if KRAS remains in the GDP state. Compounds may block nucleotide exchange or may create a steric obstruction to cRAF-KRAS interaction by binding to the RAS effector site. […] A portion of this mixture is transferred to a white 384-well plate (20 uL per well in duplicate) and read on an HTRF compatible plate reader (ClarioSTAR). Fluorescent resonance energy transfer (FRET) is measured at equilibrium. FRET signal will be high if KRAS-cRAF binding occurs. FRET signal will be low if KRAS-cRAF binding is inhibited by the test compound. Table 2 represents the average of multiple runs of each compound.

KRAS G12D = KRAS G12D (Homo sapiens, UniProt P01116, G12D); test: In-vitro RAS-RAF binding assay (RRB), HTRF/FRET; format: biochemical; design: Biotinylated KRAS protein amino acids 1-169 (produced at Erasca); made in house; details: read-out: Inhibition of RAS-RAF Binding (in-vitro) KRAS (G12D) IC50
KRAS G12D, sequence (P01116 1-169 isoform P01116-2 G12D): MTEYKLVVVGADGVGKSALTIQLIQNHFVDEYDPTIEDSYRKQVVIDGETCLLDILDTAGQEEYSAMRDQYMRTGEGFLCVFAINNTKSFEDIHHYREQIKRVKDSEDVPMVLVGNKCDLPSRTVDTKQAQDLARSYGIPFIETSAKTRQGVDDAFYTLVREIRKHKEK
Experimental: as §1

[1] = Table 2, average of multiple runs of each compound

IC50 (KRAS (WT); [1])	IC50 (KRAS G12D; [1])	IC50 (KRAS (WT); Table 1)	IC50 (KRAS G12D; Table 1)	SMILES
37.9 nM	10.8 nM	–	–	C#Cc1c(F)ccc2cc(O)cc(-c3ncc4c(N5CC6CCC(C5)N6)nc(OC[C@@H]5CCCN5CCCOCCC(=O)N[C@H](C(=O)N5C[C@H](O)C[C@H]5C(=O)N[C@@H](C)c5ccc(-c6c(F)cncc6F)cc5)C(C)(C)C)nc4c3F)c12 [Example 27, (2S,4R)-1-((2S)-2-(3-(3-((2S)-2-(((4-(3,8-diazabicyclo[3.2.1]octan-3-yl)-7-(8-ethynyl-7-fluoro-3-hydroxynaphthalen-1-yl)-8-fluoropyrido[4,3-d]pyrimidin-2-yl)oxy)methyl)pyrrolidin-1-yl)propoxy)propanamido)-3,3-dimethylbutanoyl)-N—((S)-1-(4-(3,5-difluoropyridin-4-yl)phenyl)ethyl)-4-hydroxypyrrolidine-2-carboxamide]
114 nM	7.84 nM	–	–	C#Cc1c(F)ccc2cc(O)cc(-c3ncc4c(N5CC6CCC(C5)N6)nc(OC[C@@H]5CCCN5CCCOCCC(=O)N[C@H](C(=O)N5C[C@H](O)C[C@H]5C(=O)N[C@@H](C)c5ccc(-c6cc(F)c(F)c(F)c6)cc5)C(C)(C)C)nc4c3F)c12 [Example 52, (2S,4R)-1-((2S)-2-(3-(3-((2S)-2-(((4-(3,8-diazabicyclo[3.2.1]octan-3-yl)-7-(8-ethynyl-7-fluoro-3-hydroxynaphthalen-1-yl)-8-fluoropyrido[4,3-d]pyrimidin-2-yl)oxy)methyl)pyrrolidin-1-yl)propoxy)propanamido)-3,3-dimethylbutanoyl)-4-hydroxy-N-((S)-1-(3′,4′,5′-trifluoro-[1,1′-biphenyl]-4-yl)ethyl)pyrrolidine-2-carboxamide]
3.05 nM	7.48 nM	–	–	C#Cc1c(F)ccc2cc(O)cc(-c3ncc4c(N5CC6CCC(C5)N6)nc(OC[C@@H]5CCCN5CCCOCCC(=O)N[C@H](C(=O)N5C[C@H](O)C[C@H]5C(=O)N[C@@H](C)c5ccc(N6CCC[C@H]6C#N)cc5)C(C)(C)C)nc4c3F)c12 [Example 33, (2S,4R)-1-((2S)-2-(3-(3-((2S)-2-(((4-(3,8-diazabicyclo[3.2.1]octan-3-yl)-7-(8-ethynyl-7-fluoro-3-hydroxynaphthalen-1-yl)-8-fluoropyrido[4,3-d]pyrimidin-2-yl)oxy)methyl)pyrrolidin-1-yl)propoxy)propanamido)-3,3-dimethylbutanoyl)-N—((S)-1-(4-((S)-2-cyanopyrrolidin-1-yl)phenyl)ethyl)-4-hydroxypyrrolidine-2-carboxamide]
24.2 nM	7.93 nM	–	–	C#Cc1c(F)ccc2cc(O)cc(-c3ncc4c(N5CC6CCC(C5)N6)nc(OC[C@@H]5CCCN5CCCOCCC(=O)N[C@H](C(=O)N5C[C@H](O)C[C@H]5C(=O)N[C@@H](C)c5ccc(-c6ccncc6C#N)cc5)C(C)(C)C)nc4c3F)c12 [Example 28, (2S,4R)-1-((2S)-2-(3-(3-((2S)-2-(((4-(3,8-diazabicyclo[3.2.1]octan-3-yl)-7-(8-ethynyl-7-fluoro-3-hydroxynaphthalen-1-yl)-8-fluoropyrido[4,3-d]pyrimidin-2-yl)oxy)methyl)pyrrolidin-1-yl)propoxy)propanamido)-3,3-dimethylbutanoyl)-N—((S)-1-(4-(3-cyanopyridin-4-yl)phenyl)ethyl)-4-hydroxypyrrolidine-2-carboxamide]
63.4 nM	9.91 nM	–	–	C#Cc1c(F)ccc2cc(O)cc(-c3ncc4c(N5CC6CCC(C5)N6)nc(OC[C@@H]5CCCN5CCCOCCCC(=O)N[C@H](C(=O)N5C[C@H](O)C[C@H]5C(=O)N[C@@H](C)c5ccc(-c6c(F)cccc6F)cc5)C(C)(C)C)nc4c3F)c12 [Example 34, (2S,4R)-1-((2S)-2-(4-(3-((2S)-2-(((4-(3,8-diazabicyclo[3.2.1]octan-3-yl)-7-(8-ethynyl-7-fluoro-3-hydroxynaphthalen-1-yl)-8-fluoropyrido[4,3-d]pyrimidin-2-yl)oxy)methyl)pyrrolidin-1-yl)propoxy)butanamido)-3,3-dimethylbutanoyl)-N—((S)-1-(2′,6′-difluoro-[1,1′-biphenyl]-4-yl)ethyl)-4-hydroxypyrrolidine-2-carboxamide]
22.3 nM	7.59 nM	–	–	C#Cc1c(F)ccc2cc(O)cc(-c3ncc4c(N5CC6CCC(C5)N6)nc(OC[C@@H]5CCCN5CCCOCCC(=O)N[C@H](C(=O)N5C[C@H](O)C[C@H]5C(=O)N[C@@H](C)c5ccc(-c6c(F)cccc6F)cn5)C(C)(C)C)nc4c3F)c12 [Example 30, (2S,4R)-1-((2S)-2-(3-(3-((2S)-2-(((4-(3,8-diazabicyclo[3.2.1]octan-3-yl)-7-(8-ethynyl-7-fluoro-3-hydroxynaphthalen-1-yl)-8-fluoropyrido[4,3-d]pyrimidin-2-yl)oxy)methyl)pyrrolidin-1-yl)propoxy)propanamido)-3,3-dimethylbutanoyl)-N—((S)-1-(5-(2,6-difluorophenyl)pyridin-2-yl)ethyl)-4-hydroxypyrrolidine-2-carboxamide]
> 10000 nM	64.3 nM	> 10000 nM	64 nM	Cc1cc(N)nc(-c2c(Cl)cc3c(N4CC5CCC(C4)N5)nc(OC[C@@H]4CCCN4CCCOCCCOc4cc(-c5scnc5C)ccc4CNC(=O)[C@@H]4C[C@@H](O)CN4C(=O)[C@H](NC(=O)C4(F)CC4)C(C)(C)C)nc3c2F)c1C(F)(F)F [Example 3, (2S,4R)—N-[[2-[3-[3-[(2S)-2-[[7-[6-amino-4-methyl-3-(trifluoromethyl)-2-pyridyl]-6-chloro-4-(3,8-diazabicyclo[3.2.1]octan-3-yl)-8-fluoro-quinazolin-2-yl]oxymethyl]pyrrolidin-1-yl]propoxy]propoxy]-4-(4-methylthiazol-5-yl)phenyl]methyl]-1-[(2R)-2-[(1-fluorocyclopropanecarbonyl)amino]-3,3-dimethyl-butanoyl]-4-hydroxy-pyrrolidine-2-carboxamide]
484 nM	7.7 nM	–	–	C[C@H](NC(=O)[C@@H]1C[C@@H](O)CN1C(=O)[C@@H](NC(=O)CCCCN1CCC[C@H]1COc1nc(N2CC3CCC(C2)N3)c2cnc(-c3cc(O)cc4cccc(F)c34)c(F)c2n1)C(C)(C)C)c1ccc(-c2ccccc2)cc1 [Example 83, (2S,4R)-1-((2S)-2-(5-((2S)-2-(((4-(3,8-diazabicyclo[3.2.1]octan-3-yl)-8-fluoro-7-(8-fluoro-3-hydroxynaphthalen-1-yl)pyrido[4,3-d]pyrimidin-2-yl)oxy)methyl)pyrrolidin-1-yl)pentanamido)-3,3-dimethylbutanoyl)-N-((S)-1-([1,1′-biphenyl]-4-yl)ethyl)-4-hydroxypyrrolidine-2-carboxamide]
118 nM	13.1 nM	–	–	C#Cc1c(F)ccc2cc(O)cc(-c3ncc4c(N5CC6CCC(C5)N6)nc(OC[C@@H]5CCCN5CCCOCCC(=O)N[C@H](C(=O)N5C[C@H](O)C[C@H]5C(=O)N[C@@H](C)c5ccc(-c6c(Cl)ccc(Cl)c6Cl)cc5)C(C)(C)C)nc4c3F)c12 [Example 57, (2S,4R)-1-((2S)-2-(3-(3-((2S)-2-(((4-(3,8-diazabicyclo[3.2.1]octan-3-yl)-7-(8-ethynyl-7-fluoro-3-hydroxynaphthalen-1-yl)-8-fluoropyrido[4,3-d]pyrimidin-2-yl)oxy)methyl)pyrrolidin-1-yl)propoxy)propanamido)-3,3-dimethylbutanoyl)-4-hydroxy-N-((S)-1-(2′,3′,6′-trichloro-[1,1′-biphenyl]-4-yl)ethyl)pyrrolidine-2-carboxamide]
27.8 nM	8.38 nM	–	–	C#Cc1c(F)ccc2cc(O)cc(-c3ncc4c(N5CC6CCC(C5)N6)nc(OC[C@@H]5CCCN5CCCOCCC(=O)N[C@H](C(=O)N5C[C@H](O)C[C@H]5C(=O)N[C@@H](C)c5ccc(-c6c(F)cccc6F)nc5)C(C)(C)C)nc4c3F)c12 [Example 31, (2S,4R)-1-((2S)-2-(3-(3-((2S)-2-(((4-(3,8-diazabicyclo[3.2.1]octan-3-yl)-7-(8-ethynyl-7-fluoro-3-hydroxynaphthalen-1-yl)-8-fluoropyrido[4,3-d]pyrimidin-2-yl)oxy)methyl)pyrrolidin-1-yl)propoxy)propanamido)-3,3-dimethylbutanoyl)-N—((S)-1-(6-(2,6-difluorophenyl)pyridin-3-yl)ethyl)-4-hydroxypyrrolidine-2-carboxamide]
65.7 nM	9.36 nM	–	–	C#Cc1c(F)ccc2cc(O)cc(-c3ncc4c(N5CC6CCC(C5)N6)nc(OC[C@@H]5CCCN5CCCOCCC(=O)N[C@H](C(=O)N5C[C@H](O)C[C@H]5C(=O)N[C@@H](C)c5ccc(-c6c(C)ccc(C)c6C)cc5)C(C)(C)C)nc4c3F)c12 [Example 56, (2S,4R)-1-((2S)-2-(3-(3-((2S)-2-(((4-(3,8-diazabicyclo[3.2.1]octan-3-yl)-7-(8-ethynyl-7-fluoro-3-hydroxynaphthalen-1-yl)-8-fluoropyrido[4,3-d]pyrimidin-2-yl)oxy)methyl)pyrrolidin-1-yl)propoxy)propanamido)-3,3-dimethylbutanoyl)-4-hydroxy-N-((S)-1-(2′,3′,6′-trimethyl-[1,1′-biphenyl]-4-yl)ethyl)pyrrolidine-2-carboxamide]
